According to patent US11364275B2, “Linear lipopeptide paenipeptins and methods of using the same” (priority 2017, dated 2022):
Converted amounts (≈) assume the structure as drawn. Where two headings read alike, the source gives them in different places. Where a SMILES comes first, the peptide text is derived from it. [ ]: non-standard residue; d: D form. The star is where a group is joined. Cha = N[C@@H](CC1CCCCC1)C(=O)O; Decanoyl = CCCCCCCCCC(=O)*; Heptanoyl = CCCCCCC(=O)*; Octanoyl = CCCCCCCC(=O)*; Dab = NCC[C@H](N)C(=O)O

Legend:
S. aureus ATCC 29213 [1] = settings: cited from earlier work
[2] = tested on: Klebsiella pneumoniae ATCC 13883; type: cell-based; settings: ATCC 13883
E. faecium ATCC 19434 = type: cell-based, Enterococcus faecium
From the text: (§1) The surviving cells from each antimicrobial concentration with no visible growth were enumerated by plating on tryptic soy agar (TSA). MBC was defined as the lowest concentration of the antimicrobial agent that led to at least a 99.9% reduction in the number of viable bacterial cells relative to the initial inoculum. There were three independent experiments with one replicate in each experiment.

[3] = tested on: Escherichia coli ATCC 25922; type: cell-based; settings: ATCC 25922
S. aureus ATCC 29213 [4] = type: cell-based, Staphylococcus aureus
From the text: as §1

S. aureus ATCC 43300 = type: cell-based, Staphylococcus aureus
From the text: as §1

rabbit red blood cells = experiment: Hemolytic activity; type: cell-based; settings: for Hemolysis: relative to Triton X-100
Method: Hemolytic activity was evaluated using defibrinated rabbit blood in a 96-well plate as described previously. A nonionic surfactant Triton X-100, which is capable of lysing red blood cells (RBCs), was used at 0.1% as a positive control. Briefly, rabbit blood (Hardy Diagnostics, Santa Maria, Calif.) was diluted with phosphate buffered saline (PBS; pH 7.2) at a 1:19 ratio (v/v) and free hemoglobin was removed by washing RBCs and centrifugation four times at 1,000×g at 4° C. for 5 min. Aliquots (50 μL) of washed RBCs were incubated with 150 μL two-fold dilutions of paenipeptin analogues at final concentrations of 16-128 μg/mL at 37° C. for 30 min in a microtiter plate (NBS, Corning Inc.). After incubation, treated RBCs were gently mixed by repeated pipetting. Aliquots (20 μL) of the cell suspension were mixed with 200 μL PBS in a new 96-well plate and centrifuged at 2,204×g for 10 min. The supernatant was transferred to a new 96-well plate for absorbance measurement at 415 nm using a Cell Imaging Multimode Reader (Cytation 3, BioTek; Winooski, Vt.). The percent hemolysis observed after exposure to each paenipeptin analogue was calculated relative to Triton X-100.

[5] = tested on: methicillin-resistant S. aureus ATCC 43300; type: cell-based, Staphylococcus aureus; settings: ATCC 43300
Method: (§4) The minimum inhibitory concentration (MIC) of paenipeptin analogues was determined using the broth microdilution method (Wirker, M. A. Methods for Dilution Antimicrobial Susceptibility Tests for Bacteria that Grow Aerobically: Approved Standard M07-A8; Clinical and Laboratory Standards Institute, Wayne, Pa., 2009). Seven reference strains (Acinetobacter baumannii ATCC 19606, Escherichia coli ATCC 25922, Klebsiella pneumoniae ATCC 13883, Pseudomonas aeruginosa ATCC 27853, Enterococcus faecium ATCC 19434, Staphylococcus aureus ATCC 29213 and methicillin-resistant S. aureus ATCC 43300) were subjected to MIC testing.
(§5) Paenipeptin analogues were two-fold diluted in tryptic soy broth (TSB; Becton Dickinson) and mixed with an equal volume of bacterial suspensions in TSB containing approximately 1.5×10^5 colony-forming units (CFU)/mL in a clear UV-sterilized 96-well microtiter plate (NBS, Corning Inc., Corning, N.Y.). […] The microtiter plate was incubated at 37° C. for 18-20 h.

[6] = tested on: Staphylococcus aureus ATCC 29213; type: cell-based; settings: ATCC 29213
Method: as §4, §5

[7] = tested on: methicillin-resistant S. aureus strain LAC biofilm; experiment: Established catheter-associated biofilm in vitro; type: cell-based, Staphylococcus aureus; settings: data not shown
Method: Each well was inoculated with the methicillin-resistant S. aureus strain LAC or P. aeruginosa ATCC 27853 to an OD600nm of 0.05. […] After 72 h of exposure, catheters were rinsed with PBS, followed by sonication (for S. aureus) or vigorous vortexing (for P. aeruginosa) to quantitatively recover adherent bacteria. Viable S. aureus or P. aeruginosa cells were enumerated by plating serial dilutions on TSA.

P. aeruginosa ATCC 27853 = type: cell-based, Pseudomonas aeruginosa
From the text: as §1

A. baumannii ATCC 19606 = type: cell-based, Acinetobacter baumannii
From the text: as §1

[8] = tested on: Acinetobacter baumannii ATCC 19606; type: cell-based; settings: ATCC 19606
[9] = tested on: Pseudomonas aeruginosa ATCC 27853; type: cell-based; settings: ATCC 27853
K. pneumoniae ATCC 13883 = type: cell-based, Klebsiella pneumoniae
From the text: as §1

S. aureus ATCC 29213 [10] = type: cell-based, Staphylococcus aureus; settings: ATCC 29213
Method: (§2) The impact of human serum on the antibacterial activity of selected paenipeptin analogues was determined using a procedure similar to that used for MIC determination as described above except that the microbiological medium was replaced by human serum (MP Biomedicals, Solon, Ohio). Paenipeptin analogues were two-fold diluted in 100% human serum and mixed with an equal volume of 90% serum containing approximately 1.5×10^5 CFU/mL of E. coli ATCC 25922 or S. aureus ATCC 29213. The final paenipeptin concentrations ranged from 0.5-64 μg/mL in 95% serum. The MIC in the presence of serum was then tested as described above.

E. coli ATCC 25922 [11] = type: cell-based, Escherichia coli
From the text: as §1

[12] = tested on: Escherichia coli ATCC 25922; type: in vitro ADME
Method: To determine the stability of peptides in human serum, paenipeptin analogues were added into 100% human serum to a final concentration of 64 μg/ml. The mixtures were incubated at 37° C. and samples were withdrawn at 0, 6, 12 and 24 h. […] The residual antibacterial activity after incubation in human serum was compared to the non-treated control.

[13] = tested on: Enterococcus faecium ATCC 19434; type: cell-based; settings: ATCC 19434
Method: as §4, §5

E. coli ATCC 25922 [14] = type: cell-based, Escherichia coli; settings: ATCC 25922
Method: as §2

[15] = tested on: Klebsiella pneumoniae ATCC 13883; experiment: MIC of antibiotics with or without paenipeptin analogues (potentiation); type: cell-based; settings: K. pneumoniae ATCC 13883
From the text: (§3) Gram-negative bacteria, including Acinetobacter and Klebsiella, are intrinsically resistant to the hydrophobic antibiotic rifampicin.

[16] = tested on: Acinetobacter baumannii ATCC 19606; experiment: as above; type: cell-based; settings: A. baumannii ATCC 19606
From the text: as §3

Compound | MIC [2] [µg/mL] | MBC (E. faecium ATCC 19434) [µg/mL] | MIC [3] [µg/mL] | Minimum inhibitory concentration [3] [µg/mL] | MBC (S. aureus ATCC 29213 [4]) [µg/mL] | MBC (S. aureus ATCC 43300) [µg/mL] | Hemolysis (rabbit red blood cells; 16 μg/mL) [%] | Hemolysis (rabbit red blood cells; 32 μg/mL) [%] | Hemolysis (rabbit red blood cells; 64 μg/mL) [%] | hemolytic activity (in words) (rabbit red blood cells; 128 μg/mL) | Hemolysis (rabbit red blood cells; 128 μg/mL) [%] | MIC [5] [µg/mL] | MIC [6] [µg/mL] | Minimum inhibitory concentration [6] [µg/mL] | MBC (P. aeruginosa ATCC 27853) [µg/mL] | MBC (A. baumannii ATCC 19606) [µg/mL] | MIC [8] [µg/mL] | MIC [9] [µg/mL] | MBC (K. pneumoniae ATCC 13883) [µg/mL] | Minimum inhibitory concentration (S. aureus ATCC 29213 [10]) [µg/mL] | also measured
MX-2401 |  |  |  |  |  |  |  |  |  |  |  |  |  |  |  |  |  |  |  |  | MIC (S. aureus ATCC 29213 [1]; 95% mouse serum): 128 µg/mL; MIC (S. aureus ATCC 29213 [1]; microbiological medium): 2 µg/mL
CCCCCCCCCC(=O)N[C@@H](CCN)C(=O)N[C@H](C(=O)N[C@@H](CCN)C(=O)N[C@H](Cc1ccccc1)C(=O)N[C@@H](CC(C)C)C(=O)N[C@@H](CCN)C(=O)N[C@@H](C(=O)N[C@@H](CC(C)C)C(=O)N[C@@H](CO)C(N)=O)C(C)C)[C@@H](C)CC [Analogue 12] (Decanoyl-[Dab]I[Dab][dF]L[Dab][dV]LS-NH2) | 2 to 4 | 2 to 4 | 2 to 8 | 2 to 8 | 4 to 8 | 2 to 4 | 14.3 ± 4.25 | 37.2 ± 8.62 | 73.4 ± 7.59 | strong hemolytic activity | 93.9 ± 7.57 | 2 to 4 | 2 to 4 | 2 to 4 | 2 to 4 | 0.5 to 2 | 0.5 to 2 | 1 to 2 | 4 to 8 |  | activity against established catheter-associated biofilm (in words) [7]: no activity
CCCCCCC(=O)N[C@@H](CCN)C(=O)N[C@@H](Cc1ccccc1)C(=O)N[C@@H](CCN)C(=O)N[C@H](Cc1ccccc1)C(=O)N[C@@H](CC(C)C)C(=O)N[C@@H](CCN)C(=O)N[C@H](CC(C)C)C(=O)N[C@@H](Cc1ccccc1)C(=O)N[C@@H](CO)C(N)=O [Analogue 7] (Heptanoyl-[Dab]F[Dab][dF]L[Dab][dL]FS-NH2) |  |  | 0.5 to 2 | 0.5 to 2 | 8 to 32 | 8 to 16 |  | 5.10 ± 1.26 | 18.8 ± 2.44 |  | 64.2 ± 3.28 |  |  |  |  |  | 2 to 4 | 1 to 2 |  | 32 to 64 | MBC (E. coli ATCC 25922 [11]): 8 to 16 µg/mL
CCCCCCCC(=O)N[C@@H](CCN)C(=O)N[C@H](C(=O)N[C@@H](CCN)C(=O)N[C@H](Cc1ccccc1)C(=O)N[C@@H](CC(C)C)C(=O)N[C@@H](CCN)C(=O)N[C@@H](C(=O)N[C@@H](CC(C)C)C(=O)N[C@@H](CO)C(N)=O)C(C)C)[C@@H](C)CC [Analogue 8, C8-Pat] (Octanoyl-[Dab]I[Dab][dF]L[Dab][dV]LS-NH2) | 8 to 16 | 16 to 32 | 2 to 4 | 2 to 4 |  | 8 to 32 | 0.93 ± 0.45 | 1.91 ± 0.25 | 6.18 ± 2.48 |  | 25.3 ± 4.15 | 8 to 16 | 8 to 16 | 8 to 16 | 8 to 16 | 16 to 32 |  |  | 8 to 16 | 16 to 32 | 
CC[C@H](C)[C@H](NC(=O)[C@H](CCN)NC(=O)[C@@H](N)CC1CCCCC1)C(=O)N[C@@H](CCN)C(=O)N[C@H](Cc1ccccc1)C(=O)N[C@@H](CC(C)C)C(=O)N[C@@H](CCN)C(=O)N[C@@H](C(=O)N[C@@H](CC(C)C)C(=O)N[C@@H](CO)C(N)=O)C(C)C [Analogue 16] (H-[Cha][Dab]I[Dab][dF]L[Dab][dV]LS-NH2) |  |  | 4 to 8 | 4 to 8 |  |  | 0.55 ± 0.75 | 0.33 ± 0.83 | 0.65 ± 0.62 | non-hemolytic | 1.63 ± 0.40 |  | >32 | >32 | 16 to 32 |  | ≥32 | 2 to 8 |  | >64 | MIC after incubation in human serum at 37° C. [12]: > 32 µg/mL; MIC after incubation in human serum at 37° C. ([12]; ATCC 25922, 0 h): 1 to 2 µg/mL; MIC after incubation in human serum at 37° C. ([12]; ATCC 25922, 12 h): >32 µg/mL; MIC after incubation in human serum at 37° C. ([12]; ATCC 25922, 24 h): >32 µg/mL; MIC [13]: >32 µg/mL; Minimum inhibitory concentration (E. coli ATCC 25922 [14]): 2 µg/mL (≈ 1.75 µM); MIC of ampicillin in the presence of […] μg/ml paenipeptin analogue [15]: 32 μg/ml; MIC of erythromycin in the presence of […] μg/ml paenipeptin analogue [15]: 0.0625 μg/ml; MIC of rifampicin at 2 μg/mL of paenipeptin analogue [15]: 0.0039 μg/ml; MIC of rifampicin at 4 μg/mL of paenipeptin analogue [15]: <0.00098-0.00195 μg/ml; MIC of vancomycin in the presence of […] μg/ml paenipeptin analogue [15]: >32 μg/ml; Sensitization factor (clarithromycin) ([15]; 4 μg/mL paenipeptin): 2,048-4,096; MIC of ampicillin in the presence of […] μg/ml paenipeptin analogue [16]: 8-16 μg/ml; MIC of clarithromycin in the presence of […] μg/ml paenipeptin analogue [16]: 0.0156 μg/ml; MIC of erythromycin in the presence of […] μg/ml paenipeptin analogue [16]: 0.5 μg/ml; MIC of rifampicin at 2 μg/mL of paenipeptin analogue [16]: 0.0039-0.0078 μg/ml; MIC of vancomycin in the presence of […] μg/ml paenipeptin analogue [16]: 0.5-1 μg/ml; Sensitization factor (clarithromycin) ([16]; 4 μg/mL paenipeptin): 2,048; Sensitization factor (erythromycin) ([16]; 4 μg/mL paenipeptin): 64; Sensitization factor (rifampicin) ([16]; MIC without / with 4 μg/mL paenipeptin): 4,096
